Columns and labels:
[1] = tested on: Mycobacterium tuberculosis; assay: Antimycobacterial activity against multidrug-resistant Mycobacterium tuberculosis harbouring Beijing genotype with combination of mutations of Ser 53-Leu 315 and Ser-Thr in rpoB and katG genes after 10 days by micro broth dilution method; assay type: functional
[2] = Selectivity index, ratio of IC50 for human FEH cells to MIC for multidrug-resistant Mycobacterium tuberculosis; assay type: toxicity, cell-based

| Compound | MIC [1] [µg/mL] | selectivity ratio [2] |
| --- | --- | --- |
| CC(=O)Nc1nc(N2CCC[C@H]2C(=O)OC(C)(C)C)c2nc[nH]c2n1 | 6.25 | – |
| CC(=O)Nc1nc(NCC(=O)O)c2nc[nH]c2n1 | 0.7 | – |
| CC(C)[C@H](Nc1nc(N)nc2[nH]cnc12)C(=O)O | 6.25 | – |
| CSCC[C@H](NC(=O)CNc1nc(N)nc2[nH]cnc12)C(=O)O.O | 3.1 | – |
| Nc1nc(NCC(=O)N[C@@H](CCC(=O)O)C(=O)O)c2nc[nH]c2n1 | 0.7 | > 25 |
| COC(=O)[C@H](CCSC)NC(=O)CNc1nc(NC(C)=O)nc2[nH]cnc12 | 3.1 | – |
| COC(=O)CNc1nc(N)nc2[nH]cnc12.Cl.Cl | 6.25 | – |
| O.O=C(O)CC[C@H](NC(=O)CNc1ncnc2[nH]cnc12)C(=O)O | 0.7 | > 25 |
| COC(=O)[C@H](Cc1ccccc1)NC(=O)CNc1ncnc2[nH]cnc12 | 1.5 | – |
| CC1COc2c(N3CCN(C)CC3)c(F)cc3c(=O)c(C(=O)O)cn1c23 (configuration not stated) [OFLOXACIN] | 0.1 | – |

Source: ChEMBL document CHEMBL3804804, “Synthesis and antimycobacterial activity of N-(2-aminopurin-6-yl) and N-(purin-6-yl) amino acids and dipeptides” (Bioorg Med Chem Lett, 2016)
